Patent US20120122692A1, “Method and Formulation for Eliminating Moss with Oregano Oil” (priority 2006, published 2012)

Key:
[1] = system: “Penncross” creeping bentgrass Agrostis stolonifera L.; test: Field test of spray treatments on a creeping bentgrass putting green: turf quality / phytotoxicity rating; format: in vivo; settings: scale 1-10: 10=best turf, no phytotoxicity, 6=lowest acceptable, 1=completely brown turf
Experimental: (§1) Aqueous solutions of oregano oil extract were tested on silvery thread moss growing on turf grass. The turf grass was a mature stand of “Penncross” creeping bentgrass Agrostis stolonifera L. on a sand based rootzone. IA grid of six inch square plots were arranged on the turf. Each plot was initially rated for percent moss cover on July, 2006. Only plots with greater than 50% moss cover tracked for this test. Table 1 summarized the 79 treatments tested. Oregano oil extract formulations were compared with carefentrazone and a non-treated control. Several oregano oil formulation includes a surfactant, and these formation are marked as ORG AS, ORG BS, ORG CS, and ORG DS. Each formulation was applied as a squirt or pump from a spray bottle containing the formulation. The spray bottle used was one quart bottle that delivered 2.8 ml per pump onto a four inch square are. All of the formulations were applied at least once on Jul. 6, 2006. Sequential applications were also additionally performed bi-weekly on Jul. 20, Aug. 17 and Sep. 12, 2006 for a total of one, three, or four bi-weekly application. Each carefentrazone application was made at a recommended rate of 6.7 fl. Oz. product/A.
(§2) The data from the test were analyzed using PROC ANOVA of the SAS software, Version 8 of the SAS System for Windows (SAS Institute, 1999). Means were separated (alpha=0.05) by Fischer's protected LSD (Fischer, 1966). Turf quality was rated on a scale of 1-10, where 10=best turf with no phyoxicity, 6=lowest acceptable turf quality and turf phytotoxicity, 1=worst turf quality with most phytotosixity and completely brown turf.

silvery thread moss = test: Field test of spray treatments on silvery thread moss in a creeping bentgrass putting green: percent moss cover; format: in vivo, Bryum argenteum
Experimental: as §1, §2

Structure (SMILES) | Turf Quality ([1]; 9 Oct) | Turf Quality ([1]; 12 Sep) | Turf Quality ([1]; 17 Aug) | % Moss Cover (silvery thread moss; 9 Oct (Oct. 9, 2006)) [%] | % Moss Cover (silvery thread moss; 12 Sep) [%] | % Moss Cover (silvery thread moss; 17 Aug) [%]
Cc1nn(-c2cc(CC(Cl)C(=O)O)c(Cl)cc2F)c(=O)n1C(F)F (stereo not drawn) [ES11, Carfentrazone] | 10.0 | 10.0 | 10.0 | 77.0 | 65.8 | 82.0
Cc1nn(-c2cc(CC(Cl)C(=O)O)c(Cl)cc2F)c(=O)n1C(F)F (stereo not drawn) [ES13, Carfentrazone] | 10.0 | 10.0 | 10.0 | 63.0 | 75.0 | 81.8
Cc1nn(-c2cc(CC(Cl)C(=O)O)c(Cl)cc2F)c(=O)n1C(F)F (stereo not drawn) [ES16, Carfentrazone] | 10.0 | 10.0 | 10.0 | 55.8 | 61.8 | 55.8
Cc1nn(-c2cc(CC(Cl)C(=O)O)c(Cl)cc2F)c(=O)n1C(F)F (stereo not drawn) [Treatment E11, Carfentrazone] | 10.0 | 10.0 | 10.0 | 48.0 | 66.0 | 60.0
Cc1nn(-c2cc(CC(Cl)C(=O)O)c(Cl)cc2F)c(=O)n1C(F)F (stereo not drawn) [Treatment E13, Carfentrazone] | 10.0 | 10.0 | 9.6 | 70.8 | 73.8 | 68.8
Cc1nn(-c2cc(CC(Cl)C(=O)O)c(Cl)cc2F)c(=O)n1C(F)F (stereo not drawn) [Treatment E16, Carfentrazone] | 9.6 | 10.0 | 10.0 | 55.0 | 59.0 | 58.0
